In this experiment the test system is MDA-MB-468 breast. The experiment can be described thus: NCI anticancer screen, dose series, 48 h.

Molecules are shown by their SMILES.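 48-hour exposure; five concentrations; linearly interpolated endpoints. GI50 is the concentration that inhibits growth by half. TGI denotes the concentration required for complete inhibition of growth.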

In the case of `Cc1nc2sc(C(=O)Nc3cccc4ccccc34)c(N)c2cc1C(=O)/C=C/c1ccccc1`, the GI50 was 194 nM and the TGI was 745 nM.

Consider `COC(=O)c1cc(-c2cc(OC)c(OC)c(OC)c2)[nH]c1N/N=C/c1c(Cl)cccc1Cl`, for which the GI50 is 8290 nM and the TGI was determined as 48200 nM.

With `Cc1nc2cnc3cc(F)c(-c4ccc(Oc5ncccn5)cc4Cl)cc3c2n1[C@H]1CCN(C(=O)CO)C[C@@H]1F`, the GI50 was 9470 nM and the TGI worked out at 28900 nM.

For the molecule `CC(CN1CCN(C)CC1)CN1c2ccccc2Sc2ccc(C(F)(F)F)cc21` (stereo not given), the GI50 is 1630 nM and the TGI turned out to be 3220 nM.

For `C=CCNCCCN1C(=O)c2ccc3c4c(ccc(c24)C1=O)C(=O)N(CCCNCC=C)C3=O`, the GI50 was 177 nM and the TGI stood at 423 nM.

For `CS(=O)(=O)c1ccc(-c2cnc(N)c(C(=O)Nc3ccccc3)n2)cc1`, the GI50 was greater than 37200 nM and the TGI is greater than 100000 nM.

For `CN1CCN(c2nc(NCCCCNc3ccnc4cc(Cl)ccc34)c3ccccc3n2)CC1`, the GI50 was 1580 nM and the TGI stood at 3660 nM.

On to `O=C1CC(c2ccc3c(c2)OCO3)Nc2cc3c(cc21)OCO3` (stereo not given), for which the GI50 was 295 nM and the TGI turned out to be 924 nM.

In the case of `O=C1c2ccc3c4c5ccc(c24)C(=O)N1CCCOCCCCOCCCNCc1ccc(cc1)CNCCCOCCCCOCCCN(C3=O)C5=O`, the GI50 was 802 nM and the TGI is 1650 nM.

`COc1ccc(-c2nnc(SCC(=O)Nc3ccc(/C(C)=N\O)cc3)n2-c2ccccc2)cc1OC`: the GI50 is 16400 nM and the TGI is greater than 100000 nM.

On to `Cc1cc(NC(=O)NC(=O)c2ccccc2N)ccc1Oc1ncc(Br)cn1`, for which the GI50 was less than 10 nM and the TGI is greater than 100000 nM.

`O=C1/C(=C/c2ccc([N+](=O)[O-])o2)Oc2ccc(Br)cc21`: the GI50 is 2020 nM and the TGI amounted to 4460 nM.

Turning to `COc1ccc(-c2cc(-c3ccccc3)nc(N3CCN(CCNc4ccnc5cc(Cl)ccc45)CC3)n2)cc1`, the GI50 is 1220 nM and the TGI was determined as 2620 nM.

As to `COc1ccc(C(=O)/C=C/c2c(C(F)(F)F)nc3sccn23)cc1OC`, the GI50 was 6180 nM and the TGI is greater than 100000 nM.

On to `COc1ccc(-c2cnnn2-c2cc(OC)c3c(c2)OCO3)cc1`, for which the GI50 was 56.5 nM and the TGI was greater than 100000 nM.

For the molecule `Cc1ccc2cc3c(ccc4ccccc43)c3c2c1CC3`, the GI50 was 169 nM and the TGI was 372 nM.

As to `Cn1ccnc1C(=O)/C=C/c1ccc(CC(=O)Nc2ccc(S(F)(F)(F)(F)F)cc2)cc1`, the GI50 was 2480 nM and the TGI came to 5170 nM.

Regarding `CCc1cccc2c3c(sc12)C(c1ccc(Cl)cc1)C(C#N)=C(N)O3` (stereo not given), the GI50 is 280 nM and the TGI came out at 1020 nM.

`C=C(C)[C@@H]1CC[C@]2(C(=O)NCCNCCNCCN)CC[C@]3(C)[C@H](CC[C@@H]4[C@@]5(C)CC[C@H](O)C(C)(C)[C@@H]5CC[C@]43C)[C@@H]12`: the GI50 is 8880 nM and the TGI was determined as 22700 nM.

On to `N=c1c2c(-c3ccccc3)c(-c3ccccc3)n(Cc3ccccc3)c2ncn1CCCO`, for which the GI50 is 581 nM and the TGI was 2090 nM.

For `Cn1c(=O)c(Oc2ccc(F)cc2F)cc2cnc(NC(CO)CO)nc21`, the GI50 is greater than 25000 nM and the TGI is greater than 25000 nM.

For the molecule `CCCCCCCCCCCCCCCC[N+](C)(C)CCN(Cc1ccc(OC)cc1)c1ncccn1`, the GI50 was 1040 nM and the TGI turned out to be 3580 nM.

As to `Cn1ccc2c(c1=O)C(=O)c1nccc3c1c-2nc1ccccc13`, the GI50 was 1440 nM and the TGI turned out to be 2810 nM.

For `CN(c1ccc(NC(=O)Nc2ccc(OC(F)(F)F)cc2)cc1)c1ccnc(Nc2cccc(S(N)(=O)=O)c2)n1`, the GI50 is 3930 nM and the TGI is 8860 nM.

Regarding `C=CC1=C[C@@H]2[C@@H]3O[C@]4(CC[C@H](O4)[C@@H](C)C[C@@H](O)C3=O)C[C@H](O)C3=NCC[C@@]32CC1`, the GI50 is less than 3.33 nM and the TGI was less than 3.33 nM.

(Values after PubChem BioAssay (NCI).)
